The CheMixHub viscosity set
Values joined by “and” are separate entries in the source; they are usually repeats but may differ in a detail not shown here. Equal entries are not always repeated. ± gives the uncertainty stated by the source.

Experiment: xn = mol fraction of the nth substance listed

COCCO + O
viscosity
Settings	101 kPa	101.33 kPa
298.15 K, x1 = 0.01	0.9988 ± 0.021 mPa·s	–
298.15 K, x1 = 0.025	1.169 ± 0.025 mPa·s	–
298.15 K, x1 = 0.05	1.464 ± 0.031 mPa·s	–
298.15 K, x1 = 0.056	1.516 ± 0.038 mPa·s	–
298.15 K, x1 = 0.075	1.755 ± 0.037 mPa·s	–
298.15 K, x1 = 0.0834	–	1.894 ± 0.011 mPa·s
298.15 K, x1 = 0.1	2.023 ± 0.043 mPa·s	–
298.15 K, x1 = 0.136	2.365 ± 0.055 mPa·s	–
298.15 K, x1 = 0.1366	–	2.365 ± 0.014 mPa·s
298.15 K, x1 = 0.15	2.475 ± 0.052 mPa·s	2.442 ± 0.014 mPa·s
298.15 K, x1 = 0.2	2.766 ± 0.059 mPa·s	–
298.15 K, x1 = 0.2131	–	2.768 ± 0.016 mPa·s
298.15 K, x1 = 0.25	2.908 ± 0.062 mPa·s and 2.871 ± 0.18 mPa·s and 2.871 ± 0.022 mPa·s	–
298.15 K, x1 = 0.2601	–	2.876 ± 0.016 mPa·s
298.15 K, x1 = 0.262	2.885 ± 0.061 mPa·s	–
298.15 K, x1 = 0.3	2.942 ± 0.063 mPa·s	–
298.15 K, x1 = 0.3005	–	2.904 ± 0.017 mPa·s
298.15 K, x1 = 0.3558	–	2.886 ± 0.016 mPa·s
298.15 K, x1 = 0.4	2.833 ± 0.06 mPa·s	–
298.15 K, x1 = 0.4352	–	2.751 ± 0.016 mPa·s
298.15 K, x1 = 0.48	2.582 ± 0.16 mPa·s and 2.582 ± 0.019 mPa·s	–
298.15 K, x1 = 0.486	2.575 ± 0.044 mPa·s	–
298.15 K, x1 = 0.5	2.606 ± 0.055 mPa·s	–
298.15 K, x1 = 0.5001	–	2.616 ± 0.015 mPa·s
298.15 K, x1 = 0.5219	–	2.571 ± 0.015 mPa·s
298.15 K, x1 = 0.6	2.35 ± 0.05 mPa·s	–
298.15 K, x1 = 0.6161	–	2.367 ± 0.014 mPa·s
298.15 K, x1 = 0.6806	–	2.232 ± 0.013 mPa·s
298.15 K, x1 = 0.7	2.102 ± 0.044 mPa·s	–
298.15 K, x1 = 0.72	2.115 ± 0.13 mPa·s and 2.115 ± 0.017 mPa·s	–
298.15 K, x1 = 0.7514	–	2.076 ± 0.013 mPa·s
298.15 K, x1 = 0.8	1.874 ± 0.04 mPa·s	–
298.15 K, x1 = 0.8181	–	1.93 ± 0.012 mPa·s
298.15 K, x1 = 0.85	1.772 ± 0.037 mPa·s	–
298.15 K, x1 = 0.8844	–	1.786 ± 0.011 mPa·s
298.15 K, x1 = 0.9	1.681 ± 0.036 mPa·s	–
298.15 K, x1 = 0.95	1.606 ± 0.034 mPa·s	–
298.15 K, x2 = 0.1049	–	1.671 ± 0.02 mPa·s
298.15 K, x2 = 0.2062	–	1.86 ± 0.022 mPa·s
298.15 K, x2 = 0.3055	–	2.064 ± 0.024 mPa·s
298.15 K, x2 = 0.3977	–	2.288 ± 0.027 mPa·s
298.15 K, x2 = 0.4976	–	2.538 ± 0.029 mPa·s
298.15 K, x2 = 0.6002	–	2.755 ± 0.031 mPa·s
298.15 K, x2 = 0.6964	–	2.866 ± 0.033 mPa·s
298.15 K, x2 = 0.8004	–	2.68 ± 0.03 mPa·s
298.15 K, x2 = 0.9005	–	1.989 ± 0.023 mPa·s
308.15 K, x1 = 0.0461	–	1.143 ± 0.009 mPa·s
308.15 K, x1 = 0.0623	–	1.242 ± 0.008 mPa·s
308.15 K, x1 = 0.0881	–	1.52 ± 0.011 mPa·s
308.15 K, x1 = 0.1239	–	1.829 ± 0.013 mPa·s
308.15 K, x1 = 0.16	–	1.803 ± 0.011 mPa·s
308.15 K, x1 = 0.1871	–	2.124 ± 0.016 mPa·s
308.15 K, x1 = 0.2131	–	2.067 ± 0.012 mPa·s
308.15 K, x1 = 0.2442	–	2.284 ± 0.017 mPa·s
308.15 K, x1 = 0.25	2.142 ± 0.13 mPa·s and 2.142 ± 0.019 mPa·s	–
308.15 K, x1 = 0.2601	–	2.149 ± 0.012 mPa·s
308.15 K, x1 = 0.2938	–	2.341 ± 0.018 mPa·s
308.15 K, x1 = 0.3005	–	2.164 ± 0.013 mPa·s
308.15 K, x1 = 0.326	–	2.342 ± 0.018 mPa·s
308.15 K, x1 = 0.3558	–	2.15 ± 0.013 mPa·s
308.15 K, x1 = 0.3709	–	2.319 ± 0.017 mPa·s
308.15 K, x1 = 0.4014	–	2.284 ± 0.017 mPa·s
308.15 K, x1 = 0.4352	–	2.077 ± 0.012 mPa·s
308.15 K, x1 = 0.4504	–	2.217 ± 0.017 mPa·s
308.15 K, x1 = 0.5001	–	2.001 ± 0.012 mPa·s
308.15 K, x1 = 0.5219	–	1.96 ± 0.012 mPa·s
308.15 K, x1 = 0.6161	–	1.818 ± 0.011 mPa·s
308.15 K, x1 = 0.6806	–	1.726 ± 0.011 mPa·s
308.15 K, x1 = 0.72	1.68 ± 0.11 mPa·s and 1.68 ± 0.014 mPa·s	–
308.15 K, x1 = 0.7514	–	1.624 ± 0.01 mPa·s
308.15 K, x1 = 0.8844	–	1.443 ± 0.009 mPa·s
308.15 K, x2 = 0.1034	–	1.452 ± 0.069 mPa·s
308.15 K, x2 = 0.1923	–	1.477 ± 0.07 mPa·s
308.15 K, x2 = 0.2978	–	1.629 ± 0.077 mPa·s
308.15 K, x2 = 0.3944	–	1.768 ± 0.083 mPa·s
308.15 K, x2 = 0.5527	–	1.918 ± 0.089 mPa·s
308.15 K, x2 = 0.7415	–	2.002 ± 0.093 mPa·s
308.15 K, x2 = 0.8372	–	1.768 ± 0.083 mPa·s
308.15 K, x2 = 0.956	–	1.085 ± 0.054 mPa·s
313.15 K, x1 = 0.25	1.842 ± 0.11 mPa·s and 1.842 ± 0.016 mPa·s	–
313.15 K, x1 = 0.48	1.805 ± 0.11 mPa·s and 1.805 ± 0.014 mPa·s	–
313.15 K, x1 = 0.72	1.517 ± 0.095 mPa·s and 1.517 ± 0.012 mPa·s	–
318.15 K, x1 = 0.0251	–	0.737 ± 0.005 mPa·s
318.15 K, x1 = 0.0623	–	0.95 ± 0.006 mPa·s
318.15 K, x1 = 0.15	–	1.325 ± 0.008 mPa·s
318.15 K, x1 = 0.2131	–	1.505 ± 0.009 mPa·s
318.15 K, x1 = 0.25	1.588 ± 0.096 mPa·s and 1.588 ± 0.013 mPa·s	–
318.15 K, x1 = 0.2601	–	1.585 ± 0.009 mPa·s
318.15 K, x1 = 0.3005	–	1.626 ± 0.01 mPa·s
318.15 K, x1 = 0.3558	–	1.655 ± 0.01 mPa·s
318.15 K, x1 = 0.4352	–	1.653 ± 0.01 mPa·s
318.15 K, x1 = 0.48	1.627 ± 0.099 mPa·s and 1.627 ± 0.012 mPa·s	–
318.15 K, x1 = 0.5001	–	1.615 ± 0.01 mPa·s
318.15 K, x1 = 0.5219	–	1.602 ± 0.01 mPa·s
318.15 K, x1 = 0.6161	–	1.513 ± 0.009 mPa·s
318.15 K, x1 = 0.6806	–	1.444 ± 0.009 mPa·s
318.15 K, x1 = 0.72	1.389 ± 0.087 mPa·s and 1.389 ± 0.011 mPa·s	–
318.15 K, x1 = 0.7514	–	1.36 ± 0.009 mPa·s
318.15 K, x1 = 0.8181	–	1.281 ± 0.008 mPa·s
318.15 K, x1 = 0.8844	–	1.191 ± 0.008 mPa·s
323.15 K, x1 = 0.48	1.493 ± 0.091 mPa·s and 1.493 ± 0.014 mPa·s	–
323.15 K, x1 = 0.72	1.294 ± 0.081 mPa·s and 1.294 ± 0.0099 mPa·s	–

N#C[S-].[Na+] + O
viscosity [mPa·s], 101.3 kPa
Settings	293.15 K	298.15 K	303.15 K	308.15 K	313.15 K	318.15 K	323.15 K
x1 = 0.000641	1.046 ± 0.073	0.938 ± 0.066	0.839 ± 0.059	0.759 ± 0.053	0.689 ± 0.048	0.629 ± 0.044	0.577 ± 0.041
x1 = 0.0118	1.037 ± 0.073	0.943 ± 0.066	0.835 ± 0.059	0.771 ± 0.054	0.699 ± 0.049	0.638 ± 0.045	0.589 ± 0.041
x1 = 0.01737	1.104 ± 0.078	0.985 ± 0.069	0.887 ± 0.062	0.805 ± 0.057	0.732 ± 0.051	0.672 ± 0.047	0.618 ± 0.043
x1 = 0.03707	1.261 ± 0.089	1.128 ± 0.079	1.016 ± 0.071	0.92 ± 0.065	0.834 ± 0.059	0.766 ± 0.054	0.706 ± 0.05
x1 = 0.05053	1.367 ± 0.096	1.221 ± 0.086	1.124 ± 0.079	1.015 ± 0.071	0.919 ± 0.065	0.834 ± 0.059	0.776 ± 0.055
x1 = 0.07571	1.549 ± 0.11	1.387 ± 0.097	1.25 ± 0.088	1.132 ± 0.08	1.03 ± 0.072	0.945 ± 0.066	0.87 ± 0.061
x1 = 0.09639	1.81 ± 0.13	1.613 ± 0.11	1.442 ± 0.1	1.308 ± 0.092	1.19 ± 0.084	1.091 ± 0.077	1.003 ± 0.07
x1 = 0.1127	2.193 ± 0.15	1.939 ± 0.14	1.732 ± 0.12	1.56 ± 0.11	1.408 ± 0.099	1.295 ± 0.091	1.18 ± 0.083
x1 = 0.1223	2.333 ± 0.16	2.061 ± 0.14	1.828 ± 0.13	1.653 ± 0.12	1.493 ± 0.11	1.356 ± 0.095	1.248 ± 0.088
x1 = 0.1239	2.378 ± 0.17	2.099 ± 0.15	1.873 ± 0.13	1.679 ± 0.12	1.52 ± 0.11	1.384 ± 0.097	1.27 ± 0.089
x1 = 0.1334	2.641 ± 0.18	2.321 ± 0.16	2.06 ± 0.14	1.842 ± 0.13	1.668 ± 0.12	1.505 ± 0.11	1.374 ± 0.097
x1 = 0.1416	2.851 ± 0.2	2.501 ± 0.18	2.214 ± 0.15	1.977 ± 0.14	1.779 ± 0.12	1.609 ± 0.11	1.468 ± 0.1
x1 = 0.1532	3.196 ± 0.22	2.792 ± 0.2	2.461 ± 0.17	2.191 ± 0.15	1.963 ± 0.14	1.777 ± 0.12	1.619 ± 0.11
x1 = 0.1683	3.749 ± 0.26	3.258 ± 0.23	2.858 ± 0.2	2.527 ± 0.18	2.259 ± 0.16	2.049 ± 0.14	1.837 ± 0.13
x1 = 0.1834	4.424 ± 0.31	3.802 ± 0.27	–	–	–	–	–
